{"source": "patent US10118891B2", "about": "“Organosulfur compounds for the prevention and treatment of neurodegenerative diseases” (Allium Vitalis, Inc., priority 2011, dated 2018)", "key": {"[1]": {"system": "glutathione content of cells", "conditions": "daily dosage of 1000 mg, multiple myeloma patients, with arsenic trioxide; cited from earlier work"}, "[2]": {"experiment": "partition coefficient (Log P), oil and water system", "format": "physicochemical", "conditions": "worked out from Log P", "source_text": "Lipophilic molecule: Attracted to lipids. A molecule is lipophilic if it preferentially partitions into the oily side of an oil and water system."}, "[3]": {"conditions": "oil and water system; cited from earlier work"}, "[4]": {"experiment": "experimental self-consumption by the applicant, tolerability", "format": "in vivo, human", "conditions": "240 mg/day for several weeks"}, "[5]": {"conditions": "cited from earlier work"}, "[6]": {"system": "ischemia", "conditions": "ischemia with elevation of HNE; cited from earlier work"}, "[7]": {"system": "protein carbonyls in synaptosomal membranes", "conditions": "cited from earlier work"}, "[8]": {"system": "Ehrilich ascites tumor cells", "conditions": "intracellular concentrations up to 0.6 mM; cited from earlier work"}}}
{"molecule": "O=C1O[C@H]([C@@H](O)CO)C(O)=C1O", "note": "[vitamin C]", "values": [{"measurement": "glutathione depletion, mean percentage decrease", "setting": "[1]", "result": 60, "unit": "%"}]}
{"molecule": "CCCS", "note": "[propyl mercaptan, 1-PropaneThiol]", "values": [{"measurement": "ratio of concentration on the oily side to the aqueous side", "setting": "[2]", "result": "~100"}, {"measurement": "partition coefficient (Log P)", "setting": "[3]", "result": 1.95}]}
{"molecule": "C=CCS", "note": "[allyl mercaptan, AllylThiol]", "values": [{"measurement": "negative effects on consumption", "setting": "[4]", "result": "without any apparent negative effects"}, {"measurement": "standard comprehensive blood test at the end of the experiment", "setting": "[4]", "result": "essentially normal"}, {"measurement": "solubility in water", "setting": "[5]", "result": 5000, "unit": "µg/mL"}]}
{"molecule": "CC1=NN(c2ccccc2)C(=O)C1", "note": "[edaravone]", "values": [{"measurement": "effect of treatment in ischemia", "setting": "[6]", "result": "protective effect"}]}
{"molecule": "Acrolein", "values": [{"measurement": "protein carbonyls, \"C+Acrolein\" bar", "setting": "[7]; synaptosomal membranes, acrolein without GEE pretreatment", "result": "552 % of \"Control\""}]}
{"molecule": "CC(O)C=CC=O", "note": "(stereo not drawn) [HPE]", "values": [{"measurement": "effect on protein sulfhydryls or enzyme activities", "setting": "[8]", "result": "no effect"}, {"measurement": "low molecular weight thiols", "setting": "[8]", "result": "depleted"}]}
{"molecule": "CCOC(=O)CNC(=O)[C@H](CS)NC(=O)CC[C@H](N)C(=O)O", "note": "[GEE, Glutathione Ethyl Ester]", "values": [{"measurement": "protein carbonyls, % of Control", "setting": "[7]; GEE alone, no acrolein", "result": 85, "unit": "%"}, {"measurement": "protein carbonyls, \"GEE+Acrolein\" bar", "setting": "[7]; synaptosomal membranes pretreated with GEE (3 hours), then acrolein", "result": "163 % of \"Control\""}]}
